Source: ChEMBL document CHEMBL3044938, “Chromatographic separation and in vitro activity of sorgoleone congeners from the roots of sorghum bicolor” (J Agric Food Chem, 2003)

biological target: Photosystem II protein D1 (Spinacia oleracea, UniProt P69560); experiment: Inhibition of photosystem II mediated oxygen evolution in Spinacia oleracea (spinach) thylakoid measured for 25 sec; details: read-out: I50

Row | Structure (SMILES) | IC50 [nM]
1 | C=CC/C=C\C/C=C\CCCCCCCC1=C(O)C(=O)C=C(OC)C1=O [SORGOLEONE] | 65
2 | CCCCCCCCCCCCCC1=C(O)C(=O)C=C(OC)C1=O [Sorgoleone-364] | 103
3 | CCCCCC/C=C\CCCCCCCC1=C(O)C(=O)C=C(OC)C1=O [Sorgoleone-362] | 109
4 | CCC/C=C\C/C=C\CCCCCCCC1=C(O)C(=O)C=C(OC)C1=O [Sorgoleone-360] | 104
